# Columns and labels:
# Alternaria solani = assay: In vivo preventive test on Alternaria solani (tomato); conditions: 500 ppm of active ingredient, evaluated 7 days after inoculation
# Method in brief: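 Young tomato plants were sprayed preventively with compound in DMF/alkylarylpolyglycolether diluted in water, then inoculated one day later with A. solani spores. Incubation was 1 day at about 22 °C and 100% RH, then about 20 °C and 96% RH. Efficacy was scored 7 days after inoculation (0% = untreated control, 100% = no disease).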
# Venturia inaequalis = assay: In vivo preventive test on Venturia inaequalis (apple scab); conditions: 100 ppm of active ingredient, evaluated 10 days after inoculation
# Experimental: (§1) Solvent: 24.5 parts by weight of acetone • 24.5 parts by weight of N,N-dimethylacetamide Emulsifier: 1 part by weight of alkylaryl polyglycol ether To produce a suitable preparation of active compound, 1 part by weight of active compound is mixed with the stated amounts of solvent and emulsifier, and the concentrate is diluted with water to the desired concentration. To test for preventive activity, young plants are sprayed with the preparation of active compound at the stated rate of application. After the spray coating has dried on, the plants are inoculated with an aqueous conidia suspension of the causal agent of apple scab (Venturia inaequalis) and then remain for 1 day in an incubation cabinet at approximately 20° C. and a relative atmospheric humidity of 100%. The plants are then placed in a greenhouse at approximately 21° C. and a relative atmospheric humidity of approximately 90%. The test is evaluated 10 days after the inoculation. 0% means an efficacy which corresponds to that of the untreated control, while an efficacy of 100% means that no disease is observed.
# [1] = tested on: Blumeria graminis f. sp. hordei; assay: In vivo preventive test on Blumeria graminis (barley); conditions: 500 ppm of active ingredient, evaluated 7 days after inoculation
# Experimental: (§2) Solvent: 49 parts by weight of N,N-dimethylacetamide Emulsifier: 1 part by weight of alkylaryl polyglycol ether To produce a suitable preparation of active compound, 1 part by weight of active compound or active compound combination is mixed with the stated amounts of solvent and emulsifier, and the concentrate is diluted with water to the desired concentration. To test for preventive activity, young plants are sprayed with the preparation of active compound or active compound combination at the stated rate of application. After the spray coating has been dried, the plants are dusted with spores of Blumeria graminis f. sp. hordei. The plants are placed in the greenhouse at a temperature of approximately 18° C. and a relative atmospheric humidity of approximately 80% to promote the development of mildew pustules. The test is evaluated 7 days after the inoculation. 0% means an efficacy which corresponds to that of the untreated control, while an efficacy of 100% means that no disease is observed.
# Uromyces appendiculatus = assay: In vivo preventive test on Uromyces appendiculatus (bean rust); conditions: 100 ppm of active ingredient, evaluated 10 days after inoculation
# Experimental: as §1, with “spore” for “conidia”, “bean rust (Uromyces appendiculatus)” for “apple scab (Venturia inaequalis)”
# Sphaerotheca fuliginea = assay: In vivo preventive test on Sphaerotheca fuliginea (cucumber); conditions: 500 ppm of active ingredient, evaluated 7 days after inoculation
# Experimental: Solvent: 49 parts by weight of N,N-dimethylformamide Emulsifier: 1 part by weight of Alkylarylpolyglycolether To produce a suitable preparation of active compound, 1 part by weight of active compound is mixed with the stated amounts of solvent and emulsifier, and the concentrate is diluted with water to the desired concentration. To test for preventive activity, young plants are sprayed with the preparation of active compound at the stated rate of application. One day after this treatment, the plants are inoculated with an aqueous spore suspension of Sphaerotheca fuliginea. Then the plants are placed in a greenhouse at approximately 23° C. and a relative atmospheric humidity of approximately 70%. The test is evaluated 7 days after the inoculation. 0% means an efficacy which corresponds to that of the untreated control, while an efficacy of 100% means that no disease is observed.
# Pyrenophora teres = assay: In vivo preventive test on Pyrenophora teres (barley); conditions: 500 ppm of active ingredient, evaluated 7-9 days after inoculation
# Method in brief: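 Young barley plants sprayed with compound in DMF/alkylaryl polyglycol ether emulsion; inoculated with P. teres spores one day later. 48 h at 22 °C, 100% humidity, then greenhouse ~20 °C, ~80% humidity; efficacy scored 7-9 days post-inoculation, 0% = untreated, 100% = no disease.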
# [2] = log P by HPLC on reversed-phase column (C 18), EEC Directive 79/831 Annex V.A8; type: physicochemical; conditions: HPLC on reversed-phase column (C 18), 40° C., 0.1% aqueous formic acid and acetonitrile, linear gradient 10% to 90% acetonitrile
# Method in brief: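 Compounds are eluted at 40° C using 0.1% aqueous formic acid and acetonitrile in a linear gradient from 10% to 90% acetonitrile. Unbranched alkan-2-ones bearing 3 to 16 carbons with known log P serve as calibrants. Each log P is interpolated linearly from retention times of the two bracketing alkanones.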
# Septoria tritici = assay: In vivo preventive test on Septoria tritici (wheat); conditions: 500 ppm of active ingredient, evaluated 21 days after inoculation
# Experimental: as §2, with “sprayed” for “dusted”, “a spore suspension” for “spores”, “Septoria tritici. The plants remain for 48 hours in an incubation cabinet at approximately 20° C. and a relative atmospheric humidity of approximately 100% and afterwards for 60 hours at approximately 15° C. in a translucent incubation cabinet at a relative atmospheric humidity of approximately 100%.” for “Blumeria graminis f. sp. hordei.”, “15°” for “18°”, “80%.” for “80% to promote the development of mildew pustules.”, “21” for “7”
# [3] = tested on: Fusarium nivale (var. majus); assay: In vivo preventive test on Fusarium nivale (wheat); conditions: 500 ppm of active ingredient, evaluated 5 days after inoculation
# Experimental: Solvent: 49 parts by weight of N,N-dimethylacetamide Emulsifier: 1 part by weight of alkylaryl polyglycol ether To produce a suitable preparation of active compound, 1 part by weight of active compound or active compound combination is mixed with the stated amounts of solvent and emulsifier, and the concentrate is diluted with water to the desired concentration. To test for preventive activity, young plants are sprayed with the preparation of active compound or active compound combination at the stated rate of application. After the spray coating has been dried, the plants are slightly injured by using a sandblast and afterwards they are sprayed with a conidia suspension of Fusarium nivale (var. majus). The plants are placed in the greenhouse under a translucent incubation cabinet at a temperature of approximately 10° C. and a relative atmospheric humidity of approximately 100%. The test is evaluated 5 days after the inoculation. 0% means an efficacy which corresponds to that of the untreated control, while an efficacy of 100% means that no disease is observed.
# Puccinia triticina = assay: In vivo preventive test on Puccinia triticina (wheat); conditions: 500 ppm of active ingredient, evaluated 8 days after inoculation
# Experimental: (§3) Solvent: 49 parts by weight of N,N-dimethylacetamide Emulsifier: 1 part by weight of alkylaryl polyglycol ether To produce a suitable preparation of active compound, 1 part by weight of active compound or active compound combination is mixed with the stated amounts of solvent and emulsifier, and the concentrate is diluted with water to the desired concentration. To test for preventive activity, young plants are sprayed with the preparation of active compound or active compound combination at the stated rate of application. After the spray coating has been dried, the plants are sprayed with a spore suspension of Puccinia triticina. The plants remain for 48 hours in an incubation cabinet at approximately 20° C. and a relative atmospheric humidity of approximately 100%. The plants are placed in the greenhouse at a temperature of approximately 20° C. and a relative atmospheric humidity of approximately 80%. The test is evaluated 8 days after the inoculation. 0% means an efficacy which corresponds to that of the untreated control, while an efficacy of 100% means that no disease is observed.
# Leptosphaeria nodorum = assay: In vivo preventive test on Leptosphaeria nodorum (wheat); conditions: 500 ppm of active ingredient, evaluated 8 days after inoculation
# Experimental: as §3, with “suspension of Leptosphaeria nodorum. The plants” for “suspension of Puccinia triticina. The plants”, “of approximately 22° C. and” for “of approximately 20° C. and”
# Phakopsora pachyrhizi = assay: In vivo protective test on Phakopsora pachyrhizi (soybeans); conditions: 250 ppm of active ingredient, evaluated 11 days after inoculation
chromatographic logP ([2]; reversed-phase HPLC column (C 18)),logP [2],Compound,Efficacy (Alternaria solani) [%],Efficacy (Venturia inaequalis) [%],Efficacy [1] [%],Efficacy (Uromyces appendiculatus) [%],Efficacy (Sphaerotheca fuliginea) [%],Efficacy (Pyrenophora teres) [%],Efficacy (Septoria tritici) [%],Efficacy [3] [%],Efficacy (Puccinia triticina) [%],Efficacy (Leptosphaeria nodorum) [%],Efficacy (Phakopsora pachyrhizi) [%]
2.71,–,"Cc1ccccc1C1CCCCN1C(=O)c1c(C)nn(C)c1F (centres unmarked) [Example 1, (5-fluoro-1,3-dimethyl-1H-pyrazol-4-yl)[2-(2-methylphenyl)-piperidin-1-yl]methanone]",95,99,89,100,95,100,100,–,–,–,–
–,3.06,CCc1nn(C)c(F)c1C(=O)N1CCCCC1c1ccccc1C (centres unmarked) [Example 4],95,–,78,–,95,100,100,–,–,–,–
–,3.71,Cc1cc(C)cc(C2CCCCN2C(=O)c2c(C(F)F)nn(C)c2F)c1 (centres unmarked) [Example 30],–,100,100,–,100,100,100,100,100,90,–
–,2.94,Cc1nn(C)c(F)c1C(=O)N1CCCCC1c1cccc(Cl)c1 (centres unmarked) [Example 44],95,–,–,–,89,100,90,–,–,–,–
–,4.04,Cc1cc(C(=O)N2CCCCC2c2ccc(Cl)cc2)c(C)o1 (centres unmarked) [Example 53],90,–,70,–,–,95,90,100,71,78,–
–,2.84,CCc1nn(C)c(F)c1C(=O)N1CCCCC1c1cc(OC)cc(OC)c1 (centres unmarked) [Example 67],95,100,–,95,–,90,–,–,–,–,90
–,3.25,Cc1nn(C)c(F)c1C(=O)N1CCCCC1c1cccc(Cl)c1Cl (centres unmarked) [Example 73],95,–,–,–,85,100,80,–,–,–,–
–,3.29,Cc1nn(C)c(F)c1C(=O)N1CCCCC1c1cc(Cl)ccc1Cl (centres unmarked) [Example 83],95,–,–,–,94,100,80,–,–,–,–
–,2.99,Cc1nn(C)c(F)c1C(=O)N1CCCCC1c1ccccc1Br (centres unmarked) [Example 88],95,–,–,–,94,95,89,–,–,–,–
–,3.06,Cc1nn(C)c(F)c1C(=O)N1CCCCC1c1cccc(Br)c1 (centres unmarked) [Example 95],100,–,100,–,91,95,100,100,71,89,–
–,4.13,CCC(c1ccccc1Cl)C1CCCCN1C(=O)c1c(C(F)F)nn(C)c1F (centres unmarked) [Example 162],100,–,94,–,100,100,100,–,100,90,–
–,4.95,CCC(c1ccccc1Cl)C1CCCCN1C(=S)c1c(C(F)F)nn(C)c1F (centres unmarked) [Example 165],90,99,–,73,100,100,–,–,–,–,–
